Experimental data as given in publication PMC10191434 (2023).

Test system: modified procaine-binding aptamer (new sequence) (DNA, aptamer) AGACAAGGAAAATCCTTCAACGAAGTGGGTCG
Test: square-wave voltammetry, EAB sensor titration
Conditions: undiluted bovine CSF, 37 °C, immobilised aptamer; for binding: highest concentration not given

Structure (SMILES)	binding	Kd (Langmuir-Hill fit, ± is 95% confidence) [µM]
CCN(CC)CCO	no	
CCN(CC)CCOC(=O)c1ccc(N)cc1		960 ± 30
Nc1ccc(C(=O)O)cc1	no	
